Measured values from patent US7473772B2, “Chimeric GB virus B (GBV-B)” (The Board of Regents of The University of Texas System, priority 2003, dated 2009).

System: tamarin without a prior history of GBV-B infection
Assay: Intrahepatic inoculation of synthetic GBV-B RNA into a tamarin; serum GBV-B RNA by real-time quantitative RT-PCR (TaqMan)
Assay type: in vivo, Saguinus oedipus
Conditions: about 60 μg RNA intrahepatic
Source text: Plasmid DNA containing the GBV-B cDNA was purified by isopycnic centrifugation on a CsCl gradient and isolated by ethanol precipitation. The plasmid DNA was linearized at the 3′ terminus of the cDNA insert by digestion with Xho I. Two μg of the linearized DNA was used as template in an in vitro transcription reaction using the Ambion T7 MEGAscript Kit according to the manufacturer's instructions. The integrity of the resultant synthetic RNA product was confirmed by nondenaturing agarose gel electrophoresis.
Approximately 60 μg of RNA transcribed from the GBV-B cDNA clone was diluted in phosphate buffered saline and injected under direct visualization at laparotomy into the liver of a healthy tamarin without a prior history of GBV-B infection (Saguinus oedipus). Serum samples were collected from the animal weekly beginning at 2 weeks post-inoculation and tested for the presence of GBV-B RNA by real-time quantitative RT-PCR (TaqMan® assay).

In the case of “GBV-B cDNA clone: synthetic RNA transcribed from the full-length 9.4 kb GBV-B cDNA clone containing the novel 3′ terminal sequence”, the “GBV-B RNA in serum” value (week 2 postinoculation) is reported as 8.3 × 10^3 Genome equivalents/ml, the “GBV-B RNA in serum” value (week 3 postinoculation) is reported as 6.6 × 10^5 Genome equivalents/ml and the “GBV-B RNA in serum” value (week 4 postinoculation) is reported as 4.6 × 10^8 Genome equivalents/ml.
